Legend:
Format in all cases: in vivo
corn = test: Test Example 5: effect on crop by foliage application, plastic box (symbol c); details: 320 g/ha, 3 weeks after application
In short: (§1)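 Sterilized diluvial soil, plastic box (21 × 13 × 7 cm); spot sowing, ~1.5 cm soil cover; greenhouse 25–30° C.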

Monochoria vaginalis = test: Test Example 1: herbicidal activity, application before weed generation in submerged conditions (symbol C); details: application herbicide amount 320 g/ha
In short: (§2)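 Flooded alluvial soil (4 cm water) was mixed-sown with the three weed species, and 2.5-leaf rice seedlings were transplanted. On sowing day, a water-diluted emulsion at a predetermined rate was applied to the water surface. After 3 weeks in a 25–30 °C greenhouse, effect was scored 0–5.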

rapeseed = test: Test Example 5: effect on crop by foliage application, plastic box (symbol g); details: 320 g/ha, 3 weeks after application
In short: as §1

[1] = system: Echinochloa oryzacola Vasing.; test: Test Example 2: herbicidal activity, application during weed generation in submerged conditions (symbol A); details: Table 23; application herbicide amount 320 g/ha; grade 0-5 by criteria of Test Example 1
In short: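 Paddy pot test, submerged (4 cm water), alluvial soil, mixed sowing; greenhouse 25–30° C. Emulsion formulation diluted to predetermined rate, applied onto floodwater at 1–2 leaf stage. Visual herbicidal rating at 3 wk post-treatment.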

Lolium multiflorum Lam. = test: Test Example 5: herbicidal effect by foliage application, plastic box (symbol K); details: 320 g/ha, 3 weeks after application
In short: (§3)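 Effect is rated 3 weeks after a foliar spray of water-diluted emulsion concentrate at a predetermined herbicide amount. Plants had grown 14 days in a 25° C. to 30° C. greenhouse from seed in sterilized diluvial soil.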

Digitaria ciliaris = test: Test Example 4: herbicidal effect by soil treatment (symbol F); details: application herbicide amount 320 g/ha
In short: (§4)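 Seeds were sown in sterilized diluvial soil, covered with about 1.5 cm of soil, and the soil surface was sprayed with a water-diluted emulsion of the compound at a predetermined rate. Plants grew in a greenhouse at 25° C. to 30° C.; effects were scored visually 3 weeks after application.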

beet = test: Test Example 5: effect on crop by foliage application, plastic box (symbol f); details: 320 g/ha, 3 weeks after application
In short: as §1

Veronica persica [2] = test: Test Example 4: herbicidal effect by soil treatment (symbol R); details: application herbicide amount 320 g/ha
In short: as §4

[3] = system: Echinochloa oryzacola Vasing.; test: Test Example 1: herbicidal activity, application before weed generation in submerged conditions (symbol A); details: application herbicide amount 320 g/ha
In short: as §2

Avena fatua = test: Test Example 5: herbicidal effect by foliage application, plastic box (symbol I); details: 320 g/ha, 3 weeks after application
In short: as §3

Veronica persica [4] = test: Test Example 5: herbicidal effect by foliage application, plastic box (symbol R); details: 320 g/ha, 3 weeks after application
In short: as §3

| SMILES | c: corn, effect on crop (criteria of Test Example 1) (corn) | Herbicidal effect grade, C: Monochoria vaginalis (Monochoria vaginalis) | g: rapeseed, effect on crop (criteria of Test Example 1) (rapeseed) | Herbicidal effect grade, A: Echinochloa oryzacola Vasing. [1] | K: Lolium multiflorum Lam., herbicidal effect (criteria of Test Example 1) (Lolium multiflorum Lam.) | F: Digitaria ciliaris, herbicidal effect grade (Digitaria ciliaris) | f: beet, effect on crop (criteria of Test Example 1) (beet) | R: Veronica persica, herbicidal effect grade (Veronica persica [2]) | Herbicidal effect grade, A: Echinochloa oryzacola Vasing. [3] | I: Avena fatua, herbicidal effect (criteria of Test Example 1) (Avena fatua) | R: Veronica persica, herbicidal effect (criteria of Test Example 1) (Veronica persica [4]) | c: corn, effect on crop grade (corn) | g: rapeseed, effect on crop grade (rapeseed) | K: Lolium multiflorum Lam., herbicidal effect grade (Lolium multiflorum Lam.) | f: beet, effect on crop grade (beet) | I: Avena fatua, herbicidal effect grade (Avena fatua) | R: Veronica persica, herbicidal effect grade (Veronica persica [4]) |
| --- | --- | --- | --- | --- | --- | --- | --- | --- | --- | --- | --- | --- | --- | --- | --- | --- | --- |
| CON=C(C)CC1CC(OC(=O)N(C)C)=C(c2c(C)cc(-c3ccc(Cl)cc3)cc2C)C1=O (mixture of isomers) [6-063] | 5 (Herbicidal ratio of 90% or more (almost completely withered)) | 3 (Herbicidal ratio of 40% or higher and lower than 70%) | 4 (Herbicidal ratio of 70% or higher and lower than 90%) | 2 (Herbicidal ratio of 20% or higher and lower than 40%) | 5 (Herbicidal ratio of 90% or more (almost completely withered)) | 5 (Herbicidal ratio of 90% or more (almost completely withered)) | 0 (Herbicidal ratio of 5% or lower (almost no effect)) | 0 (Herbicidal ratio of 5% or lower (almost no effect)) | 5 (Herbicidal ratio of 90% or more (almost completely withered)) | 5 (Herbicidal ratio of 90% or more (almost completely withered)) | 0 (Herbicidal ratio of 5% or lower (almost no effect)) |  |  |  |  |  |  |
| CCc1cc(-c2ccc(Cl)cc2)cc(C)c1C1=C(OC(=O)N2CCOCC2)CC(CC(C)=NOC)C1=O (mixture of isomers) [6-064] | 5 (Herbicidal ratio of 90% or more (almost completely withered)) | 0 (Herbicidal ratio of 5% or lower (almost no effect)) | 3 (Herbicidal ratio of 40% or higher and lower than 70%) | 4 (Herbicidal ratio of 70% or higher and lower than 90%) | 5 (Herbicidal ratio of 90% or more (almost completely withered)) | 5 (Herbicidal ratio of 90% or more (almost completely withered)) | 0 (Herbicidal ratio of 5% or lower (almost no effect)) | 0 (Herbicidal ratio of 5% or lower (almost no effect)) | 5 (Herbicidal ratio of 90% or more (almost completely withered)) | 5 (Herbicidal ratio of 90% or more (almost completely withered)) | 4 (Herbicidal ratio of 70% or higher and lower than 90%) |  |  |  |  |  |  |
| CON=C(C)CC1CC(O)=C(c2c(C)cc(Oc3ccccc3)cc2C)C1=O (stereo not drawn) [6-052] |  | 0 (Herbicidal ratio of 5% or lower (almost no effect)) |  | 3 (Herbicidal ratio of 40% or higher and lower than 70%) |  | 4 (Herbicidal ratio of 70% or higher and lower than 90%) |  | 0 (Herbicidal ratio of 5% or lower (almost no effect)) | 4 (Herbicidal ratio of 70% or higher and lower than 90%) |  |  | 3 (Herbicidal ratio of 40% or higher and lower than 70%) | 3 (Herbicidal ratio of 40% or higher and lower than 70%) | 5 (Herbicidal ratio of 90% or more (almost completely withered)) | 0 (Herbicidal ratio of 5% or lower (almost no effect)) | 2 (Herbicidal ratio of 20% or higher and lower than 40%) | 0 (Herbicidal ratio of 5% or lower (almost no effect)) |
| CON=C(C)CC1CC(O)=C(c2c(C)cc(C(C)=NOC)cc2C)C1=O (stereo not drawn) [6-065] | 5 (Herbicidal ratio of 90% or more (almost completely withered)) | 3 (Herbicidal ratio of 40% or higher and lower than 70%) | 4 (Herbicidal ratio of 70% or higher and lower than 90%) | 5 (Herbicidal ratio of 90% or more (almost completely withered)) | 5 (Herbicidal ratio of 90% or more (almost completely withered)) | 5 (Herbicidal ratio of 90% or more (almost completely withered)) | 3 (Herbicidal ratio of 40% or higher and lower than 70%) | 3 (Herbicidal ratio of 40% or higher and lower than 70%) | 4 (Herbicidal ratio of 70% or higher and lower than 90%) | 5 (Herbicidal ratio of 90% or more (almost completely withered)) | 3 (Herbicidal ratio of 40% or higher and lower than 70%) |  |  |  |  |  |  |
| CON=C(C)CC1CC(O)=C(c2c(C)cc(-n3cccn3)cc2C)C1=O (stereo not drawn) [6-073] | 4 (Herbicidal ratio of 70% or higher and lower than 90%) | 1 (Herbicidal ratio of 5% or higher and lower than 20%) | 4 (Herbicidal ratio of 70% or higher and lower than 90%) | 4 (Herbicidal ratio of 70% or higher and lower than 90%) | 5 (Herbicidal ratio of 90% or more (almost completely withered)) | 5 (Herbicidal ratio of 90% or more (almost completely withered)) | 0 (Herbicidal ratio of 5% or lower (almost no effect)) | 0 (Herbicidal ratio of 5% or lower (almost no effect)) | 4 (Herbicidal ratio of 70% or higher and lower than 90%) | 5 (Herbicidal ratio of 90% or more (almost completely withered)) | 3 (Herbicidal ratio of 40% or higher and lower than 70%) |  |  |  |  |  |  |
| CON=C(C)CC1CC(O)=C(c2c(C)cc(-n3cncn3)cc2C)C1=O (stereo not drawn) [6-074] | 0 (Herbicidal ratio of 5% or lower (almost no effect)) | 0 (Herbicidal ratio of 5% or lower (almost no effect)) | 0 (Herbicidal ratio of 5% or lower (almost no effect)) | 1 (Herbicidal ratio of 5% or higher and lower than 20%) | 2 (Herbicidal ratio of 20% or higher and lower than 40%) | 0 (Herbicidal ratio of 5% or lower (almost no effect)) | 0 (Herbicidal ratio of 5% or lower (almost no effect)) | 0 (Herbicidal ratio of 5% or lower (almost no effect)) | 1 (Herbicidal ratio of 5% or higher and lower than 20%) | 1 (Herbicidal ratio of 5% or higher and lower than 20%) | 0 (Herbicidal ratio of 5% or lower (almost no effect)) |  |  |  |  |  |  |

— US11000033B2, “Ketone or oxime compound, and herbicide” (NISSAN CHEMICAL CORPORATION, priority 2014, dated 2021)
